Experimental data taken from US20050246797A1, “Gene participating in the synthesis of brassinosteroid” (priority 2002, published 2005).
Where two headings read alike, the source gives them in different places.

Assays:
[1] = Concentrations of brassinosteroids in Arabidopsis strains by HPLC and GC-MS
Protocol: The concentrations of brassinosteroids were determined in wild strains (Ws-2), the strain of reference example 1 (rot3-1 and rot3-5, suppressed function of ROT3) and the strain of reference example 3 (rot3/CYP90D1, suppressed function of ROT3 and CYP90D1) of Arabidoposis. The concentration was determined by harvesting the ground part of the plants at the time of rosette formation by reaping, by freezing and drying, and by detecting using HPLC and GC-MS.

[2] = tested on: strains of suppressed function of both ROT3 and CYP90D1; assay: Treatment of plants/leaves of the ROT3- and CYP90D1-suppressed strain with brassinosteroid intermediates or brassinolide (leaf morphology, FIG. 3); assay type: in vivo, Arabidopsis; conditions: aqueous solution 0.1 μM, submersion with gentle shaking
Protocol: The strain with suppressed function of both ROT3 and CYP90D1 prepared in reference example 2 was cultured from seeds in sterilized conditions. The seeds of the above-described strain were seeded on the MS medium (solidified by 0.2% Gelrite) supplemented with 2% (w/v) sucrose and were conventionally cultured at 23° C. under continuous illumination after seeding under sterilized conditions.
The above-described plants (strains of suppressed function of both ROT3 and CYP90D1) were cultured in the above-described aqueous solution at the level of submersion under the solution with gently shaking. In the case of the treatment of leaves with the above-described intermediates or brassionolide, leafstalks were cut out by a surgical knife after taking out the plants under sterilized conditions and were treated in the same way. […] Namely, ROT3 and CYP90D1 are cooperatively involved in the synthesis of brassinolide, the final product of the biosynthetic pathway of brassinosteriods.

[3] = rot3/CYP90D1 (suppressed function of ROT3 and CYP90D1), ground part of plants at rosette formation

Row | amount in the strain with suppressed function of both ROT3 and CYP90D1 ([1]; rot3/CYP90D1, in words) | SMILES | concentration of brassinosteroid, rot3/CYP90D1 [1, 3] | concentration of brassinosteroid, rot3/CYP90D1 [1] [ng/g] | effect on leaf size/morphology of plants without the function of ROT3 and CYP90D1 [2]
1 | – | CC(C)[C@H](C)[C@@H](O)[C@H](O)[C@@H](C)[C@H]1CC[C@H]2[C@@H]3CC[C@H]4C[C@H](O)CC[C@]4(C)[C@H]3CC[C@]12C [3-Deoxotyphasterol] | 0.38 ng/g | – | –
2 | – | CC(C)[C@H](C)[C@@H](O)[C@H](O)[C@@H](C)[C@H]1CC[C@H]2[C@@H]3CC[C@H]4C[C@H](O)[C@H](O)C[C@]4(C)[C@H]3CC[C@]12C [6-Deoxocastasterone] | – | 0.034 | –
3 | – | CC(C)[C@H](C)[C@@H](O)[C@H](O)[C@@H](C)[C@H]1CC[C@H]2[C@@H]3CC[C@H]4C[C@@H](O)CC[C@]4(C)[C@H]3CC[C@]12C [6-Deoxoteasterone] | 0.26 ng/g | – | –
4 | extremely decreased | CC(C)[C@H](C)[C@@H](O)[C@H](O)[C@@H](C)C1CCC2C3OC(=O)[C@H]4C[C@H](O)[C@H](O)C[C@]4(C)C3CC[C@@]21C (stereo partly shown) [Brassinolide] | — (— in the table shows that the value is less than the limit of detection (0.001 ng/g)) | – | induced large size of leaves
5 | – | CC(C)[C@H](C)[C@@H](O)[C@H](O)[C@@H](C)[C@H]1CC[C@H]2[C@@H]3CC(=O)[C@H]4C[C@H](O)[C@H](O)C[C@]4(C)[C@H]3CC[C@]12C [Castasterone] | 0.020 ng/g | – | –
